Assay results as given in patent US20240182406A1, “COMPOUNDS AS SOLUBLE EPOXIDE HYDROLASE INHIBITORS” (UNIVERSITAT DE BARCELONA, priority 2021, published 2024).

System: amyloid plaques
Assay: Thioflavin S staining of amyloid plaques in brain slices (5×FAD mice)
Format: in vivo, mouse
Settings: 5×FAD male mice 6-month-old, 5 mg/kg, 4 weeks, mean ± SEM
Description: 5×FAD (tg6799) is an early-onset mouse transgenic model which overexpress mutant human APP(695) with the Swedish (K670N, M671L), Florida (I716V) and London (V717I) Familial Alzheimer's Disease (FAD) mutations along with human PS1 harbouring two FAD mutations (M146L and L286V). The Tg6799 line used is the original hybrid B6SJL background, and this hybrid B6SJL strain is used as a control of healthy animals. The mouse Thy1 promoter regulates both transgenes to drive overexpression in the brain. 5×FAD mice recapitulate major features of AD amyloid pathology and is a useful model of intraneuronal Abeta-42 induced neurodegeneration with amyloid increase brain content and amyloid plaque formation and tau hyperphosphorylation (J Neurosci. 2006, 26(40), 10129-10140).
The test compound was dissolved in 1.8% hydroxypropyl-beta-cyclodextrin and concentration in water was calculated according to the weekly animal consumption to reach the precise daily dose. A freshly made weekly replaces the drinking solution. The amount of water that the animals drink was monitored weekly, by the cage, and drug concentration was adjusted every week to reach the precise dose. After 4 weeks of maintained treatment, mice were studied in the behavioural tests.
After NORT, animals were sacrificed and the whole hippocampus dissected or brain slices from control and treated mice obtained by using a cryostat. […]

Compound: O=C(NC12CC3CC(Cl)(CC(C1)c1ccccc13)C2)N[C@H]1CC[C@H](Oc2ccc(C(=O)O)cc2)CC1 [Example 2, 4-[((1r,4r)-4-(3-(9-chloro-5,6,8,9,10,11-hexahydro-7H-5,9:7,11-dimethanobenzo[9]annulen-7-yl)ureido)cyclohexyl)oxy]benzoic acid]
- Number of Aβ plaques: 292 ± 83
